What is called CC50 is the concentration giving 50% cytotoxicity. As usually defined, the IC50 is the midpoint of a concentration-inhibition curve. A word on the IC90: it is the concentration needed for an effect of 90%. A lower IC90 goes with an effect from little substance.

The text below walks through data of paper PMC6943623, “Antileishmanial Compounds Isolated from Psidium Guajava L. Using a Metabolomic Approach” (Molecules, 2019).

Converted amounts (≈) assume the structure as drawn. Like-named read-outs stand apart in the source and are kept apart here.

The subject of one data set is L. infantum amastigote. Details: method as in PMID 29201107. The following applies: cited from earlier work.
The test system of data set [1] is Leishmania. Details: method as in PMID 15070160. The following applies: cited from earlier work.
The subject of the next data set is L. infantum amastigotes. Briefly: Intracellular ROS generation, H2DCFDA assay. The following applies: axenic amastigotes treated 24 h at IC50 and IC90 concentrations. Format: cell-based. Here is the method:
The cells were then centrifuged, washed with PBS, resuspended in PBS, and incubated for 30 min in the dark with 10 µM H2DCFDA at 37 °C. ROS were measured as an increase in fluorescence caused by the conversion of non-fluorescent dye to highly fluorescence […] (excitation wavelength 490 nm, emission wavelength 525 nm) in a fluorescence microplate reader (SAFAS Xenius XM, Monaco, France).

Data set [2] is described as follows: Cytotoxicity evaluation, MTT assay. To be noted: mouse, J774A.1 macrophage cells, mean of three independent experiments, read-out: J774A1 CC50. Format: cell-based. How it is done:
After incubation for 24 h, 100 µL of medium with various concentrations of jacoumaric acid, carasolic acid, and appropriate controls (doxorubicin and amphotericin B, purchased from Sigma-Aldrich) were added and the plates were incubated for 72 h at 37 °C and 5% CO2. Each 96-well plate was then examined under a microscope to detect possible precipitate formation before the medium was aspirated from the well. 100 µL of MTT solution (0.5mg/mL in DMEM) was then added to each well. Cells were incubated for 2 h at 37 °C and 5% CO2. Then, the MTT solution was removed and DMSO (100 µL/well) was added to dissolve the resulting formazan crystals. Plates were shaken vigorously (300 rpm) for 5 min. The absorbance was measured at 570 nm with a microplate spectrophotometer (Eon Bio Tek, Winooski, VT, USA). DMSO was used as blank. […] (San Diego, CA, USA). CC50 values represent the mean value calculated from three independent experiments.

The test system of data set [3] is L. infantum promastigotes. Briefly: Antileishmanial activity on promastigotes (luciferase assay). Format: cell-based, L. infantum strain MHOM/MA/67/ITMAP-263. The following applies: Leishmania infantum, 72 h, 24 °C, mean of three independent experiments.
Data set [4] concerns L. infantum axenic amastigotes. As to the kind of experiment: Antileishmanial activity on axenic amastigotes (luciferase assay). Format: cell-based, L. infantum strain MHOM/MA/67/ITMAP-263. To be noted: for Axenic Amastigotes IC50 / IC50: L. infantum axenic amastigotes, 48 h, 37 °C; for IC50 / IC90: Leishmania infantum; for IC90: L. infantum amastigotes, concentration used in the ROS assay; for IC50 when associated with mannitol, compared with IC50 alone: mannitol 50 µM, axenic amastigotes.

In data set [5] the test system is Leishmania. Details: method as in PMID 31571946. The following applies: cited from earlier work.
Data set [6] deals with five human cancer cell lines (HCT116, CCRFCEM, DU145, Huh7, and A549). Details: method as in PMID 28578580. To be noted: read-out: IC50, antitumor activity; cited from earlier work.
The test system of the next data set is Leishmania amazonensis. Details: method as in PMID 31269109. The following applies: cited from earlier work.
Another data set concerns Pyricularia pryzae. The following applies: cited from earlier work.

For the compound `CC1(C)CC[C@]2(C(=O)O)CC[C@]3(C)C(=CC[C@@H]4[C@@]5(C)CC[C@H](O)C(C)(C)[C@@H]5CC[C@]43C)[C@@H]2C1` [oleanoic acid], in the data set on L. infantum amastigote, the “IC50 on L. infantum amastigote” value is listed as 2.91 ± 0.066 µg/mL (≈ 6.37 µM).

With `C[C@H]1[C@H](C)CC[C@]2(C(=O)O)CC[C@]3(C)C(=CC[C@@H]4[C@@]5(C)CC[C@H](O)C(C)(C)[C@@H]5CC[C@]43C)[C@H]12` [ursolic acid], the “IC50, antileishmanial” value in the data set on Leishmania [1] is recorded as 27 µg/mL (≈ 59.1 µM).

On to `CC1CCC2(C(=O)O)CCC3(C)C(=CCC4C5(C)CC(O)C(OC(=O)/C=C/c6ccc(O)cc6)C(C)(C)C5CCC43C)C2C1C` (stereo not drawn) [Jacoumaric acid (2), Jacoumaric acid], for which the “Production of ROS (H2DCFDA fluorescence) compared to the control” value in the data set on L. infantum amastigotes is on record as “significantly decreased”. Also, in data set [2], the 50% cytotoxic concentration (CC50) at 72 h came to 12.9 ± 2.5 µg/mL (≈ 20.8 µM). In data set [3], this compound had a concentration for half-maximal inhibition (IC50) greater than 50 µg/mL. Besides, in [4], the “Axenic Amastigotes IC50” value came out at 1.32 ± 0.59 µg/mL; the IC50 worked out at 1.32 ± 0.59 µg/mL (≈ 2.13 µM); the 90% effect level (IC90) was put at 1.9 µg/mL (≈ 3.07 µM); the “IC50 when associated with mannitol, compared with IC50 alone” value is reported as “no significant differences”.

On to `C[C@@H]1[C@H](O)[C@@H](C)/C=C/C=C/C=C/C=C/C=C/C=C/C=C/[C@H](O[C@@H]2O[C@H](C)[C@@H](O)[C@H](N)[C@@H]2O)C[C@@H]2O[C@](O)(C[C@@H](O)C[C@@H](O)[C@H](O)CC[C@@H](O)C[C@@H](O)CC(=O)O[C@H]1C)C[C@H](O)[C@H]2C(=O)O` [Amphotericin B, reference compound], for which the CC50 at 72 h in data set [2] turned out to be 5.79 ± 0.65 µg/mL (≈ 6.27 µM). Also, the IC50 in data set [3] worked out at 0.09 ± 0.01 µg/mL (≈ 0.0974 µM); in data set [4], 0.09 ± 0.04 µg/mL (≈ 0.0974 µM).

With `COc1cccc2c1C(=O)c1c(O)c3c(c(O)c1C2=O)C[C@@](O)(C(=O)CO)C[C@@H]3O[C@H]1C[C@H](N)[C@H](O)[C@H](C)O1` [Doxorubicin, reference compound], the CC50 at 72 h in [2] was found to be 0.04 ± 0.004 µg/mL (≈ 0.0736 µM).

In the case of spergulin-A, the “IC50, antileishmanial” value in the data set on Leishmania [5] was 6.22 µg/mL.

`CC1(C)CC[C@]2(C(=O)O)CC[C@]3(C)C(=CC[C@@H]4[C@@]5(C)C[C@@H](O)[C@H](O)C(C)(C)[C@@H]5CC[C@]43C)[C@@H]2C1` [maslinic, maslinic acid]: the “IC50 on L. infantum amastigote” value with L. infantum amastigote is 0.99 ± 0.09 µg/mL (≈ 2.09 µM).

On to `C/C1=C\CC(C)(C)/C=C/CC2(C)Oc3c(C=O)c(O)c(C=O)c(O)c3C(c3ccccc3)C2CC1` (stereo not drawn) [Guajadial B (5), Guajadial B], for which the IC50 was 150 nM in [6], greater than 50 µg/mL in data set [3] and greater than 50 µg/mL in data set [4].

For the compound `C[C@H]1[C@H](C)CC[C@]2(C(=O)O)CC[C@]3(C)C(=CC[C@@H]4[C@@]5(C)C[C@@H](O)[C@H](O)C(C)(C)[C@@H]5CC[C@]43C)[C@H]12` [Corosolic acid (1), Corosolic acid (2α-hydroxyursolic acid)], the “Production of ROS (H2DCFDA fluorescence) compared to the control” value with L. infantum amastigotes was “significantly decreased”. In addition, in data set [2], the 50% cytotoxic concentration (CC50) at 72 h is 5.77 ± 0.5 µg/mL (≈ 12.2 µM). In data set [3], this compound yielded a 50% inhibitory concentration (IC50) of 18.4 ± 1.2 µg/mL (≈ 39 µM). In addition, in data set [4], the “Axenic Amastigotes IC50” value is on record as 1.01 ± 0.06 µg/mL; half-maximal inhibition (IC50) was put at 1.06 µg/mL (≈ 2.24 µM); it took 1.43 µg/mL (≈ 3.03 µM) to reach the 90% level (IC90); the “IC50 when associated with mannitol, compared with IC50 alone” value is on record as “no significant differences”.

On to `C=C1CC/C=C(\C)CC[C@@H]2[C@@H]1CC2(C)C` [E-caryophyllene], for which, in the data set with Leishmania amazonensis, the “IC50, antileishmanial” value was 10.7 ± 0.6 µg/mL (≈ 52.4 µM).

With `CC1(C)CCC2(C(=O)O)CCC3(C)C(=CCC4C5(C)CC(O)C(O)C(C)(C(=O)O)C5CCC43C)C2C1` (stereo not drawn) [Medicagenic acid (6), Medicagenic acid], in the data set on Pyricularia pryzae, the “minimum fungicidal concentration (MFC)” value was 30 µg/mL (≈ 59.7 µM) and the “minimum inhibitory concentration (MIC)” value is 10 µg/mL (≈ 19.9 µM). The compound further returned an IC50 in data set [3] greater than 50 µg/mL. Also, the IC50 in data set [4] is greater than 50 µg/mL.
